Four compounds from the NIST ThermoML archive (doi:10.1021/acs.jced.5b00542) can be followed below.

Structures are written as SMILES. Numbers after ± are expanded uncertainties.

For the series the following is noted: 298.15 K; 101.33 kPa; Liquid; Vibrating tube method.
For orientation: mass density means mass per unit of volume. Regarding `C1CCCCC1` [cyclohexane], the mass density worked out at 779 ± 20 kg/m3.

As for `CC(C)O` [propan-2-ol], the mass density was determined as 798 ± 20 kg/m3.

As for `CCCCCC` [hexane], the mass density worked out at 659 ± 20 kg/m3.

With `c1ccccc1` [benzene], the mass density is recorded as 874 ± 20 kg/m3.
